Laboratory results from the NIST ThermoML archive (doi:10.1016/j.fluid.2005.07.017).
± gives the expanded uncertainty stated by the source.

Details: Liquid, Vibrating tube method

c1ccsc1 [thiophene]
Details	mass density [kg/m3]
293.15 K, 101 kPa	1063.59 ± 0.44
303.15 K, 101 kPa	1051.55 ± 0.44
313.09 K, 1029 kPa	1040.96 ± 0.44
313.09 K, 1969 kPa	1041.84 ± 0.44
313.09 K, 2970 kPa	1042.78 ± 0.44
313.09 K, 3987 kPa	1043.71 ± 0.44
313.09 K, 5055 kPa	1044.72 ± 0.44
313.09 K, 5952 kPa	1045.51 ± 0.44
313.09 K, 6937 kPa	1046.43 ± 0.44
313.09 K, 8032 kPa	1047.39 ± 0.44
313.09 K, 9218 kPa	1048.44 ± 0.44
313.09 K, 10045 kPa	1049.18 ± 0.44
313.09 K, 11012 kPa	1050.03 ± 0.44
313.09 K, 12014 kPa	1050.9 ± 0.44
313.09 K, 12995 kPa	1051.74 ± 0.44
313.09 K, 13961 kPa	1052.59 ± 0.44
313.09 K, 14970 kPa	1053.43 ± 0.44
313.09 K, 15953 kPa	1054.26 ± 0.44
313.09 K, 17004 kPa	1055.16 ± 0.44
313.09 K, 18003 kPa	1055.95 ± 0.44
313.09 K, 18904 kPa	1056.76 ± 0.44
313.15 K, 101 kPa	1039.32 ± 0.44
323.01 K, 1047 kPa	1028.97 ± 0.44
323.01 K, 2059 kPa	1029.98 ± 0.44
323.01 K, 3070 kPa	1031.02 ± 0.44
323.01 K, 4047 kPa	1031.99 ± 0.44
323.01 K, 5002 kPa	1032.9 ± 0.44
323.01 K, 6005 kPa	1033.9 ± 0.44
323.01 K, 7068 kPa	1034.92 ± 0.44
323.01 K, 8021 kPa	1035.81 ± 0.44
323.01 K, 9013 kPa	1036.76 ± 0.44
323.01 K, 10005 kPa	1037.67 ± 0.44
323.01 K, 10991 kPa	1038.62 ± 0.44
323.01 K, 12034 kPa	1039.58 ± 0.44
323.01 K, 12977 kPa	1040.44 ± 0.44
323.01 K, 13999 kPa	1041.38 ± 0.44
323.01 K, 14991 kPa	1042.26 ± 0.44
323.01 K, 15995 kPa	1043.17 ± 0.44
323.01 K, 16998 kPa	1044.03 ± 0.44
323.01 K, 17983 kPa	1044.93 ± 0.44
323.01 K, 18951 kPa	1045.78 ± 0.44
323.15 K, 101 kPa	1026.98 ± 0.44
332.85 K, 1015 kPa	1016.93 ± 0.44
332.85 K, 2035 kPa	1018 ± 0.44
332.85 K, 3004 kPa	1019.06 ± 0.44
332.85 K, 3964 kPa	1020.05 ± 0.44
332.85 K, 4991 kPa	1021.14 ± 0.44
332.85 K, 6001 kPa	1022.17 ± 0.44
332.85 K, 7014 kPa	1023.21 ± 0.44
332.85 K, 7998 kPa	1024.2 ± 0.44
332.85 K, 9009 kPa	1025.23 ± 0.44
332.85 K, 9995 kPa	1026.19 ± 0.44
332.85 K, 10989 kPa	1027.18 ± 0.44
332.85 K, 12006 kPa	1028.17 ± 0.44
332.85 K, 13009 kPa	1029.18 ± 0.44
332.85 K, 13971 kPa	1030.09 ± 0.44
332.85 K, 15006 kPa	1031.04 ± 0.44
332.85 K, 15990 kPa	1032.01 ± 0.44
332.85 K, 17050 kPa	1033.03 ± 0.44
332.85 K, 17976 kPa	1033.88 ± 0.44
332.85 K, 19018 kPa	1034.92 ± 0.44
333.15 K, 101 kPa	1014.58 ± 0.44
342.77 K, 1039 kPa	1004.75 ± 0.44
342.77 K, 2072 kPa	1005.93 ± 0.44
342.77 K, 3033 kPa	1007.02 ± 0.44
342.77 K, 4023 kPa	1008.17 ± 0.44
342.77 K, 5027 kPa	1009.26 ± 0.44
342.77 K, 6033 kPa	1010.36 ± 0.44
342.77 K, 7008 kPa	1011.44 ± 0.44
342.77 K, 7998 kPa	1012.5 ± 0.44
342.77 K, 9005 kPa	1013.59 ± 0.44
342.77 K, 10000 kPa	1014.65 ± 0.44
342.77 K, 10963 kPa	1015.65 ± 0.44
342.77 K, 12009 kPa	1016.72 ± 0.44
342.77 K, 13023 kPa	1017.82 ± 0.44
342.77 K, 13928 kPa	1018.74 ± 0.44
342.77 K, 15009 kPa	1019.83 ± 0.44
342.77 K, 15998 kPa	1020.79 ± 0.44
342.77 K, 17025 kPa	1021.8 ± 0.44
342.77 K, 17995 kPa	1022.8 ± 0.44
342.77 K, 19013 kPa	1023.79 ± 0.44
342.77 K, 20001 kPa	1024.73 ± 0.44
343.15 K, 101 kPa	1002.15 ± 0.44
352.67 K, 1064 kPa	992.39 ± 0.44
352.67 K, 2003 kPa	993.54 ± 0.44
352.67 K, 3024 kPa	994.79 ± 0.44
352.67 K, 4003 kPa	995.98 ± 0.44
352.67 K, 5048 kPa	997.22 ± 0.43
352.67 K, 6013 kPa	998.36 ± 0.43
352.67 K, 7013 kPa	999.51 ± 0.43
352.67 K, 8050 kPa	1000.73 ± 0.43
352.67 K, 9018 kPa	1001.82 ± 0.43
352.67 K, 10003 kPa	1002.93 ± 0.43
352.67 K, 11003 kPa	1004.07 ± 0.43
352.67 K, 12004 kPa	1005.16 ± 0.43
352.67 K, 12998 kPa	1006.25 ± 0.44
352.67 K, 14005 kPa	1007.34 ± 0.44
352.67 K, 15038 kPa	1008.46 ± 0.44
352.67 K, 16006 kPa	1009.49 ± 0.44
352.67 K, 17027 kPa	1010.58 ± 0.44
352.67 K, 18001 kPa	1011.6 ± 0.44
352.67 K, 19031 kPa	1012.65 ± 0.44
352.67 K, 20017 kPa	1013.74 ± 0.44
353.15 K, 101 kPa	989.76 ± 0.44
362.51 K, 1007 kPa	979.8 ± 0.44
362.51 K, 2022 kPa	981.13 ± 0.44
362.51 K, 3029 kPa	982.49 ± 0.44
362.51 K, 4004 kPa	983.74 ± 0.44
362.51 K, 5006 kPa	985.01 ± 0.44
362.51 K, 6003 kPa	986.27 ± 0.43
362.51 K, 6999 kPa	987.5 ± 0.43
362.51 K, 7993 kPa	988.73 ± 0.43
362.51 K, 9007 kPa	989.99 ± 0.43
362.51 K, 9993 kPa	991.16 ± 0.43
362.51 K, 10997 kPa	992.36 ± 0.43
362.51 K, 11993 kPa	993.56 ± 0.43
362.51 K, 12838 kPa	994.53 ± 0.43
362.51 K, 14038 kPa	995.94 ± 0.43
362.51 K, 15044 kPa	997.1 ± 0.43
362.51 K, 16029 kPa	998.18 ± 0.43
362.51 K, 17006 kPa	999.27 ± 0.43
362.51 K, 18016 kPa	1000.4 ± 0.43
362.51 K, 18987 kPa	1001.47 ± 0.43
